In patent US9238631B2, “Radiolabeled amino acids for diagnostic imaging” (PIRAMAL IMAGING SA, priority 2011, dated 2016):

Tests used:
H460 cells = assay: Retention of radioactivity in H460 cells (efflux); assay type: cell-based, human; conditions: 30 minute efflux period after 30 minutes loading
Description: The retention of radioactivity in tumor cells was examined. Therefore. H460 cells were loaded with 0.25 MBq of the respective tracer for 30 minutes in PBS buffer, containing 0.1% BSA. After this uptake, the buffer was removed and the cells were washed with PBS. The cells were then reincubated with new PBS buffer, without radioactivity for up to 30 minutes. The release of activity into the supernatant as well as the retention of activity inside the cells was examined. It was discovered, that only a limited amount of activity was released into the supernatant during the 30 minute efflux period. More than 80% of the activity were retained inside the tumor cells during the 30 minute incubation under these efflux conditions.
In addition, the retention of radioactivity in tumor cells was examined. Therefore. H460 cells were loaded with 0.25 MBq of [^18F]-41 for 30 minutes in PBS buffer, containing 0.1% BSA. After this uptake, the buffer was removed and the cells were washed with PBS. The cells were then reincubated with new PBS buffer without radioactivity for 30 min. The release of activity into the supernatant as well as the retention of activity inside the cells was determined. It was discovered, that only a limited amount of activity was released into the supernatant during the 30 minute efflux period. […]

NCI-H460 tumor [1] = assay: In vivo biodistribution in NCI-H460 tumor bearing mice
Summary of the method: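 Biodistribution of 18F-labeled compounds was assessed in female NMRI (nu/nu) mice bearing NCI-H460 tumors, established by inoculating 5×10^6 cells 8 to 10 days beforehand. Each mouse received 185 kBq of the fluorinated tracer; at least n=3 animals per time point were sacrificed, organs excised, and radioactivity quantified with a γ-counter.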

NCI-H460 tumor [2] = assay: PET imaging in NCI-H460 tumor bearing nude-rats; assay type: in vivo; conditions: PET ROI analysis, 1 h p.i.
Summary of the method: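 NCI-H460 cells were inoculated into the right flank of nude rats (RH-Foxn1 nu/nu) 8 to 10 days before imaging. PET images were acquired for 10 minutes at 60 min after injection of approximately 10 MBq tracer. Tumor, liver and kidney activity was derived by ROI analysis as %ID/g.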

[3] = system: NCI-H460 (human NSCLC) cells; assay: Time-dependent uptake and blocking of [^18F]-41 in NCI-H460 cells; assay type: cell-based; conditions: 0.25 MBq, 60 min incubation, approx. 100.000 cells
Description: NCI-H460 (human NSCLC) cells, grown adherently in 48 well plates were used for these experiments. Approximately 100.000 cells were incubated in PBS-buffer containing 0.1% BSA with 0.25 MBq [^18F]-41 for up to 60 minutes. A time-dependent uptake was observed during the 60 min incubation period. Approximately 13% of applied dose was taken up by the cells during the 60 min incubation period (FIG. 6). For the blocking study [^18F]-41 was co-incubated with 1 mM 41 for 30 minutes. After this time, the cell bound radioactivity was determined.

reactive lymph nodes = assay: PET uptake in inflammatory lesions (streptozotocin-induced reactive lymph nodes); assay type: in vivo, mice; conditions: dynamic PET 1 h, 3 days after streptozotocin
Description: To test the specificity of compounds from the present invention, compound [^18F]-41 was examined in an animal model of reactive lymph nodes in comparison to the clinically commonly used PET tracer FDG. Therefore, female immunocompetent NMRI mice (10 weeks old) were injected with streptozotocin (500 μg/40 μL PBS) in the right hind limb to induce an inflammatory reaction in the right popliteal and additional lymph nodes. PET imaging studies were performed 3 days after Streptozotocin injection. PET images were acquired dynamically for 1 h after injection of approximately 5-10 MBq. After the imaging study, region-of-interest (ROI) analysis was performed in the popliteal, inguinal and iliacal lymph nodes. At least 3 animals were examined per tracer.

## N[C@@H](CCC(Cc1ccc(OC[18F])cc1)C(=O)O)C(=O)O (stereo partly drawn) [[^18F]-41, (2S)-2-amino-5-[4-(fluoromethoxy)benzyl]hexanedioic acid]
H460 cells
  activity retained inside the tumor cells: More than 80%
NCI-H460 tumor [1]; 1 h p.i.
  Kidney (% ID/g at 1 h p.i.): 3.1 ± 0.4 % ID/g
  Liver (% ID/g at 1 h p.i.): 0.3 ± 0.1 % ID/g
  Pancreas (% ID/g at 1 h p.i.): 1.0 ± 0.5 % ID/g
  Tumor (% ID/g at 1 h p.i.): 6.8 ± 1.3 % ID/g
  Urine (% ID at 1 h p.i.): 69.3 ± 14.5 % ID
NCI-H460 tumor [1]; 1 h post injection
  T/Blood: 26.3
  T/Muscle: 90.6
NCI-H460 tumor [1]; mouse, in vivo
  tumor uptake and retention (summary statement): high tumor uptake and retention
NCI-H460 tumor [2]
  Kidney (% ID/g at 1 h p.i.): 0.5 % ID/g
  Liver (% ID/g at 1 h p.i.): 0.4 % ID/g
  Tumor (Max % ID/g at 1 h p.i.): 3.7 % ID/g
  Tumor (Mean % ID/g at 1 h p.i.): 1.6 % ID/g
[3]
  uptake of applied dose by the cells: Approximately 13 % of applied dose
Reactive lymph nodes
  initial uptake in the inflammatory lesions: reduced compared to FDG
  time-course of activity in the reactive lymph nodes: wash-out of radioactivity
